Data on three compounds can be found in paper PMC4844192 (ACS chemical biology, 2015).

The target in one assay is CtBP2 (Homo sapiens, UniProt P56545). Put plainly: Isothermal titration calorimetry. In kind it is binding. On the technique in general: Isothermal titration calorimetry measures the heat released or taken up as one component is titrated into another.
Assay [1] relates to CtBP. It counts as biochemical, human.
Assay [2] concerns CtBP. Particulars: cited from earlier work.
In assay [3] the test system is HCT116 colon cancer cells. Particulars: through displacement of CtBP2 from the Bik promoter; cited from earlier work.
A further assay addresses CtBP1 (Homo sapiens, UniProt Q13363). Put plainly: Isothermal titration calorimetry. Particulars: CtBP1, pH 7.5, displacement ITC with HIPP.
The next assay has as its system mouse xenograft models. Particulars: compared with untreated mice; cited from earlier work.
The subject of assay [4] is CtBP. As to conditions: cited from earlier work. The source holds these as a separate data set.
Where [5] appears, read: CtBP2, pH 8.5, competitive displacement ITC with HIPP.

Structures are written as SMILES.

Regarding `O=C(O)C(=O)Cc1ccccc1` [PPy, phenylpyruvate], the “binding relative to MTOB (ITC injection peaks)” value at CtBP2 (CtBP2, low PPy concentrations, CtBP2 precipitation prevented quantitation) was “tighter than MTOB”. Besides, in the assay on CtBP [1] (CtBP dehydrogenase function, after 15 minutes), the 50% inhibitory concentration (IC50) (in general, the concentration that inhibits the measured activity by half) turned out to be 135 µM.
With `CSCCC(=O)C(=O)O` [MTOB, 4-methylthio 2-oxobutyric acid], the “concentrations required for (substrate) inhibition of CtBP” value in the assay on CtBP [2] was above 300 µM. For the same compound, the apoptosis entry in assay [3] is given as “induced apoptosis”. Also, on CtBP2 (CtBP2, direct titration, low signal), the “binding dissociation constant, direct ITC measurement” value is on record as “low millimolar range”. Besides, at CtBP2 (setting [5]), the ΔG was -3.4 kcal, the ΔH is -3.4 ± 0.34 kcal/mol and the “−TΔS” value turned out to be 0.0 kcal/mol. Besides, at CtBP1, the ΔG was -3.9 kcal, the ΔH was -11.3 ± 0.83 kcal/mol and the “−TΔS” value worked out at 7.4 kcal/mol. The substrate inhibition entry with CtBP [1] (MTOB in excess) is given as “exhibits substrate inhibition when in excess”. Also, in the assay on mouse xenograft models, the survival entry is recorded as “prolonged survival” and the tumor burden result is given as “decreased tumor burden”.
Take `NC(=O)C1=CN([C@@H]2O[C@H](COP(=O)(O)OP(=O)(O)OC[C@H]3O[C@@H](n4cnc5c(N)ncnc54)[C@H](O)[C@@H]3O)[C@@H](O)[C@H]2O)C=CC1` [NADH]: the “affinity of CtBP for NADH relative to NAD+” value in the assay on CtBP [4] is 100 fold.
